These results are taken from PMC9995618 (Journal of Genetic Engineering & Biotechnology, 2023).

pKi: −log10 of the molar value.

The experiment has as its system T1, tick larvae glutathione S transferase (TLGST).
T1 construct: native enzyme purified from larvae (42 kDa; 28 and 14 kDa subunits)
Put plainly: CDNB-GSH conjugation assay, Lineweaver-Burk and Ki plot. The experiment is classed as biochemical, Hyalomma dromedarii.

By pKi is commonly meant the Ki on a negative log10 scale, so that one unit is a factor of ten. Read a low pKi as a high Ki. `O=C(O)c1cc[c]([Hg][Cl])cc1` [p-chloromercuribenzoic acid] had a pKi of 3.52.
